Data from article PMC6137088, “The Role of Outer Membrane Proteins and Lipopolysaccharides for the Sensitivity of Escherichia coli to Antimicrobial Peptides” (Frontiers in Microbiology, 2018).
≈ marks a conversion by molar mass, not a printed value. Where no end group is shown, it is not given here.

What was measured:
[1] = test system: enterohemorrhagic E. coli EHEC EDL933; details: ref Thomassin et al., 2012; cited from earlier work
Description: (§1) Bacterial pathogens have evolved different mechanisms to resist the antimicrobial activity of cationic AMPs (Peschel and Sahl, [2006]). The production of proteases degrading and thereby inactivating cationic AMPs is one obvious way for bacteria to protect themselves against antimicrobials. Several omptins such as OmpT, and PgtE, all proteases found in the OM of various Gram-negative pathogens belonging to the Enterobacteriaceae family, have been associated with the degradation of AMPs (Hritonenko and Stathopoulos, [2007]). In particular, OmpT has been implicated in the proteolytic degradation ...

[2] = test system: enteropathogenic E. coli EPEC E2348/69 ΔompT; details: ref Thomassin et al., 2012; cited from earlier work
Description: as §1

[3] = test system: uropathogenic E. coli CFT073ΔompT; details: ref Brannon et al., 2013; cited from earlier work
Description: as §1

S. typhimurium LT2 = experiment: MIC testing (CLSI broth microdilution); assay type: cell-based; details: Table 6, triplicates
Procedure: (§2) The minimum inhibitory concentrations (MICs) of the AMPs were measured in 96-well microtiter plates according the Clinical and Laboratory Standards Institute [CLSI, formerly National Committee for Clinical Laboratory Standards (NCCLS)] (Wikler et al., [2009]). Liquid Mueller-Hinton-II medium containing increasing concentrations of AMPs is inoculated with a defined number of cells (~10^5 CFUs/ml) in 96-well microtiter plates (polypropylene). Each microtiter plate includes a positive growth control and a negative control (sterile control). After incubation, the minimal inhibitory concentration (MIC) is determined by the lowest concentration showing no visible growth. All plates were incubated for 16–20 h.

Y. ruckeri 392/2003 = experiment: MIC testing (CLSI broth microdilution); assay type: cell-based; details: Table 6, triplicates
Procedure: as §2

E. coli ATCC25922 ΔwaaC = assay type: cell-based, Escherichia coli; details: Table 6, triplicates
Description: (§3) The E. coli strains 470, F632, F653 and F2513 were kindly provided by Prof. H. Brade and Prof. S. Muller-Loennies, Research Center Borstel, Leipniz-Center for Medicine and Biosciences, Germany. E. coli BW25113 (CGSC#:7636), a derivative of F^−, λ^− E. coli K12 strain BD792 is the wild-type strain which was used in the generation of the KEIO collection and ordered from the Coli Genetic Stock Centre (CGSC, Yale University). E. coli JW3596, E. coli JW3024, E. coli JW3595, E. coli JW3606, E. coli JW0212, E. coli JW1667, E. coli JW0554, E. coli JW3605 and E. coli JW3600 are isogenic mutants of waaC, waaE, waaF, waaG, gmhA (lpcA), lpp, ompT, waaP, or waaY derived from the parental strain E. coli BW25113 and were ordered from the KEIO collection (Baba et al., [2006]). E. coli ATCC25922 is a clinical isolate, serotype O6, often used as control strain in antimicrobial susceptibility testing was ordered from the ATCC strain collection. All strains were grown in Mueller-Hinton-II medium and incubation took place aerobically at 37°C for 18–20 h.
as §2

E. coli ATCC25922 ΔwaaF = assay type: cell-based, Escherichia coli; details: Table 6, triplicates
Description: as §3, §2

E. coli BW25113 = assay type: cell-based, Escherichia coli; details: for MIC: Table 3, E. coli BW25113 wild type, Mueller-Hinton-II, ~10^5 CFUs/ml, 16–20 h, duplicates (*) or triplicates
Description: as §3, §2

[4] = test system: E. coli BW25113 waaC::kan; assay type: cell-based, Escherichia coli; details: Table 3; BW25113 waaC::kan; Mueller-Hinton-II, 16–20 h; duplicates (*) or triplicates
Description: as §3, §2

E. coli F632 (R2) = assay type: cell-based, Escherichia coli; details: Table 4; E. coli F632 (R2 prototype, rough LPS); triplicates
Description: as §3, §2

[5] = test system: E. coli strains representing core types K12, R1, R2, R3, R4 and ATCC25922; assay type: cell-based, Escherichia coli; details: span over isolates and core types of Table 4
Description: as §3, §2

[6] = test system: E. coli BW25113 gmhA::kan; assay type: cell-based, Escherichia coli; details: Table 3; BW25113 gmhA::kan; Mueller-Hinton-II, 16–20 h; duplicates (*) or triplicates
Description: as §3, §2

E. coli ATCC25922 = assay type: cell-based, Escherichia coli; details: Table 6; E. coli ATCC25922 wild-type; triplicates
Description: as §3, §2

E. coli F470 (R1) = assay type: cell-based, Escherichia coli; details: Table 4; E. coli F470 (R1 prototype, rough LPS); triplicates
Description: as §3, §2

E. coli ATCC25922 ΔwaaE = assay type: cell-based, Escherichia coli; details: Table 6, triplicates
Description: as §3, §2

[7] = test system: E. coli BW25113 waaY::kan; assay type: cell-based, Escherichia coli; details: Table 3, Mueller-Hinton-II, 16–20 h, duplicates (*) or triplicates
Description: as §3, §2

[8] = test system: E. coli BW25113 waaE::kan; assay type: cell-based, Escherichia coli; details: Table 3; BW25113 waaE::kan; Mueller-Hinton-II, 16–20 h; duplicates (*) or triplicates
Description: as §3, §2

[9] = test system: E. coli BW25113 waaG::kan; assay type: cell-based, Escherichia coli; details: Table 3; BW25113 waaG::kan; Mueller-Hinton-II, 16–20 h; duplicates (*) or triplicates
Description: as §3, §2

[10] = test system: E. coli BW25113 waaP::kan; assay type: cell-based, Escherichia coli; details: Table 3; BW25113 waaP::kan; Mueller-Hinton-II, 16–20 h; duplicates (*) or triplicates
Description: as §3, §2

[11] = test system: E. coli BW25113 ompT::kan; assay type: cell-based, Escherichia coli; details: Table 3; BW25113 ompT::kan; Mueller-Hinton-II, 16–20 h; duplicates (*) or triplicates
Description: as §3, §2

E. coli F653 (R3) = assay type: cell-based, Escherichia coli; details: Table 4; E. coli F653 (R3 prototype, rough LPS); triplicates
Description: as §3, §2

E. coli F2513 (R4) = assay type: cell-based, Escherichia coli; details: Table 4; E. coli F2513 (R4 prototype, rough LPS); triplicates
Description: as §3, §2

[12] = test system: E. coli BW25113 waaF::kan; assay type: cell-based, Escherichia coli; details: Table 3; BW25113 waaF::kan; Mueller-Hinton-II, 16–20 h; duplicates (*) or triplicates
Description: as §3, §2

E. coli ATCC25922 ΔwaaG = assay type: cell-based, Escherichia coli; details: Table 6, triplicates
Description: as §3, §2

Row | Compound | MIC (E. coli BW25113) [µg/mL] | MIC [4] [µg/mL] | Antimicrobial activity (MIC) (E. coli F632 (R2)) [µg/mL] | MIC over all the tested E. coli strains [5] [µg/mL] | MIC [6] | Antimicrobial activity (MIC) (E. coli F470 (R1)) [µg/mL] | MIC [7] [µg/mL] | MIC [8] [µg/mL] | MIC [9] [µg/mL] | MIC [10] [µg/mL] | MIC [11] | Antimicrobial activity (MIC) (E. coli F653 (R3)) [µg/mL] | Antimicrobial activity (MIC) (E. coli F2513 (R4)) [µg/mL] | MIC [12] [µg/mL] | also measured
1 | LL-37 |  |  |  |  |  |  |  |  |  |  |  |  |  |  | decrease of MIC by loss of OmpT in EHEC EDL933 (factor) [1]: 2; decrease in MIC in the ΔompT mutant compared to parental EPEC E2348/69 (factor) [2]: unchanged; change of MIC in CFT073ΔompT compared to wild-type CFT073 [3]: unchanged
2 | GLRKRLRKFRNKIKEKLKKIGQKIQGLLPKLAPRTDY [Cap18] | 4 to 8 | 4 | 4 | 4 to 8 | 4 to 8 µg/mL | 4 | 4 to 8 | 4 | 4 | 4 to 8 | 4 to 8 µg/mL | 4 to 8 | 2 to 4 | 4 | Antimicrobial activity: MIC (S. typhimurium LT2): 4 to 8 µg/mL; Antimicrobial activity: MIC (Y. ruckeri 392/2003): 2 to 4 µg/mL; Antimicrobial activity: MIC (E. coli ATCC25922 ΔwaaC): 2 to 4 µg/mL; Antimicrobial activity: MIC (E. coli ATCC25922 ΔwaaF): 2 to 4 µg/mL; Antimicrobial activity (MIC) (E. coli BW25113; Table 4, E. coli BW25113 (K12 core type), triplicates): 4 to 8 µg/mL; Antimicrobial activity: MIC (E. coli ATCC25922): 4 to 8 µg/mL; Antimicrobial activity: MIC (E. coli ATCC25922 ΔwaaE): 4 µg/mL; Antimicrobial activity: MIC (E. coli ATCC25922 ΔwaaG): 4 µg/mL
3 | CC[C@H](C)[C@H](NC(=O)CN)C(=O)NCC(=O)N[C@@H](C)C(=O)N[C@H](C(=O)N[C@@H](CC(C)C)C(=O)N[C@@H](CCCCN)C(=O)N[C@H](C(=O)N[C@@H](CC(C)C)C(=O)N[C@H](C(=O)N[C@H](C(=O)NCC(=O)N[C@@H](CC(C)C)C(=O)N1CCC[C@H]1C(=O)N[C@@H](C)C(=O)N[C@@H](CC(C)C)C(=O)N[C@H](C(=O)N[C@@H](CO)C(=O)N[C@@H](Cc1c[nH]c2ccccc12)C(=O)N[C@H](C(=O)N[C@@H](CCCCN)C(=O)N[C@@H](CCCNC(=N)N)C(=O)N[C@@H](CCCCN)C(=O)N[C@@H](CCCNC(=N)N)C(=O)N[C@@H](CCC(N)=O)C(=O)N[C@@H](CCC(N)=O)C(N)=O)[C@@H](C)CC)[C@@H](C)CC)[C@@H](C)O)[C@@H](C)O)C(C)C)C(C)C [Melittin] | 16 to 32 | 4 (≈ 1.41 µM) | 32 | 4 to 32 | 2 ^* μg/ml | 16 | 16 to 32 | 4 (≈ 1.41 µM) | 4 (≈ 1.41 µM) | 4 (≈ 1.41 µM) | 32 ^* μg/ml | 32 | 4 | 4 (≈ 1.41 µM) | 
